Laboratory results taken from patent US8865679B2 (priority 2001, dated 2014).
Several values for one entry are separate records, joined by “and”; a condition that tells them apart may be missing. Equal entries are not always repeated.

How the values were obtained:
Settings in all cases: mouse, in vivo
E. coli strain TVDL-rat = test system: E. coli strain TVDL-rat; parameters: species or system mice
B. anthracis spores = test system: B. anthracis spores; parameters: species or system mouse (Balb/c)
B. anthracis = test system: B. anthracis; parameters: species or system mouse (Balb/c)

poly-(1,6)-β-D-glucopyranosyl (1,3)β-D-glucopyranose [PGG]
survival rate (E. coli strain TVDL-rat): 90% and 75% and 70% | mean survival time (B. anthracis spores): 10.2 days and 11.5 days | number of survivors out of 22 mice (B. anthracis spores): 19 | percent survivors (B. anthracis spores): 86.36% | survival, data pooled from the two experiments (B. anthracis spores): 10.86 days | bacteria-free animals (B. anthracis): 86.4% | bacterial load in lung of surviving animals (B. anthracis): 2.6×10^5 CFU/g lung
